Test results from PMC11277489, “Novel Piperazine Derivatives of Vindoline as Anticancer Agents” (International Journal of Molecular Sciences, 2024).

How the values were obtained:
[1] = tested on: EKVX; test: NCI60 one-dose screen (10 μM), Non-small Cell Lung Cancer; type: cell-based; conditions: Homo sapiens, 10 μM, Non-small Cell Lung Cancer, read-out: Growth percent rate
[2] = tested on: HS 578T; test: NCI60 one-dose screen (10 μM), Breast Cancer; type: cell-based; conditions: Homo sapiens; 10 μM; HS 578T, Breast Cancer; read-out: Growth percent rate
[3] = tested on: CAKI-1; test: NCI60 one-dose screen (10 μM), Renal Cancer; type: cell-based; conditions: Homo sapiens; 10 μM; CAKI-1, Renal Cancer; read-out: Growth percent rate
[4] = tested on: NCI-H322M; test: NCI60 one-dose screen (10 μM), Non-small Cell Lung Cancer; type: cell-based; conditions: Homo sapiens, 10 μM, Non-small Cell Lung Cancer, read-out: Growth percent rate
[5] = tested on: SF-295; test: NCI60 one-dose screen (10 μM), CNS Cancer; type: cell-based; conditions: Homo sapiens; 10 μM; SF-295, CNS Cancer; read-out: Growth percent rate
[6] = tested on: NCI-H23; test: NCI60 one-dose screen (10 μM), Non-small Cell Lung Cancer; type: cell-based; conditions: Homo sapiens; 10 μM; NCI-H23, Non-small Cell Lung Cancer; read-out: Growth percent rate
[7] = tested on: HCT-116; test: NCI60 one-dose screen (10 μM), Colon Cancer; type: cell-based; conditions: Homo sapiens; 10 μM; HCT-116, Colon Cancer; read-out: Growth percent rate
[8] = tested on: ACHN; test: NCI60 one-dose screen (10 μM), Renal Cancer; type: cell-based; conditions: Homo sapiens, 10 μM, Renal Cancer, read-out: Growth percent rate
[9] = tested on: HCC-2998; test: NCI60 one-dose screen (10 μM), Colon Cancer; type: cell-based; conditions: Homo sapiens; 10 μM; HCC-2998, Colon Cancer; read-out: Growth percent rate
[10] = tested on: HT29; test: NCI60 one-dose screen (10 μM), Colon Cancer; type: cell-based; conditions: Homo sapiens, HT-29; 10 μM; HT29, Colon Cancer; read-out: Growth percent rate
[11] = tested on: SF-539; test: NCI60 one-dose screen (10 μM), CNS Cancer; type: cell-based, human; conditions: Homo sapiens; 10 μM; SF-539, CNS Cancer; read-out: Growth percent rate
[12] = tested on: 786–0; test: NCI60 one-dose screen (10 μM), Renal Cancer; type: cell-based; conditions: Homo sapiens; 10 μM; 786-0, Renal Cancer; read-out: Growth percent rate
[13] = tested on: COLO 205; test: NCI60 one-dose screen (10 μM), Colon Cancer; type: cell-based, human; conditions: Homo sapiens; 10 μM; COLO 205, Colon Cancer; read-out: Growth percent rate
[14] = tested on: SK-MEL-5; test: NCI60 one-dose screen (10 μM), Melanoma; type: cell-based, human; conditions: Homo sapiens; 10 μM; SK-MEL-5, Melanoma; read-out: Growth percent rate
[15] = tested on: SNB-19; test: NCI60 one-dose screen (10 μM), CNS Cancer; type: cell-based; conditions: Homo sapiens; 10 μM; SNB-19, CNS Cancer; read-out: Growth percent rate
[16] = tested on: UACC-257; test: NCI60 one-dose screen (10 μM), Melanoma; type: cell-based; conditions: Homo sapiens; 10 μM; UACC-257, Melanoma; read-out: Growth percent rate
[17] = tested on: MDA-MB-435; test: NCI60 one-dose screen (10 μM), Melanoma; type: cell-based; conditions: Homo sapiens; 10 μM; MDA-MB-435, Melanoma; read-out: Growth percent rate
[18] = tested on: SW-620; test: NCI60 one-dose screen (10 μM), Colon Cancer; type: cell-based; conditions: Homo sapiens; 10 μM; SW-620, Colon Cancer; read-out: Growth percent rate
[19] = tested on: OVCAR-8; test: NCI60 one-dose screen (10 μM), Ovarian Cancer; type: cell-based; conditions: Homo sapiens; 10 μM; OVCAR-8, Ovarian Cancer; read-out: Growth percent rate
[20] = tested on: A549/ATCC; test: NCI60 one-dose screen (10 μM), Non-small Cell Lung Cancer; type: cell-based; conditions: Homo sapiens; 10 μM; A549/ATCC, Non-small Cell Lung Cancer; read-out: Growth percent rate
[21] = tested on: M14; test: NCI60 one-dose screen (10 μM), Melanoma; type: cell-based; conditions: Homo sapiens; 10 μM; M14, Melanoma; read-out: Growth percent rate
[22] = tested on: TK-10; test: NCI60 one-dose screen (10 μM), Renal Cancer; type: cell-based; conditions: Homo sapiens; 10 μM; TK-10, Renal Cancer; read-out: Growth percent rate
[23] = tested on: U251; test: NCI60 one-dose screen (10 μM), CNS Cancer; type: cell-based; conditions: Homo sapiens, U-251; 10 μM; U251, CNS Cancer; read-out: Growth percent rate
[24] = tested on: IGROV1; test: NCI60 one-dose screen (10 μM), Ovarian Cancer; type: cell-based; conditions: Homo sapiens, IGROV-1; 10 μM; IGROV1, Ovarian Cancer; read-out: Growth percent rate
[25] = tested on: MOLT-4; test: NCI60 one-dose screen (10 μM), Leukemia; type: cell-based, human; conditions: Homo sapiens; 10 μM; MOLT-4, Leukemia; read-out: Growth percent rate
[26] = tested on: SNB-75; test: NCI60 one-dose screen (10 μM), CNS Cancer; type: cell-based, human; conditions: Homo sapiens; 10 μM; SNB-75, CNS Cancer; read-out: Growth percent rate
[27] = tested on: OVCAR-3; test: NCI60 one-dose screen (10 μM), Ovarian Cancer; type: cell-based; conditions: Homo sapiens; 10 μM; OVCAR-3, Ovarian Cancer; read-out: Growth percent rate
[28] = tested on: MALME-3M; test: NCI60 one-dose screen (10 μM), Melanoma; type: cell-based; conditions: Homo sapiens; 10 μM; MALME-3M, Melanoma; read-out: Growth percent rate
[29] = tested on: NCI-H460; test: NCI60 one-dose screen (10 μM), Non-small Cell Lung Cancer; type: cell-based; conditions: Homo sapiens; 10 μM; NCI-H460, Non-small Cell Lung Cancer; read-out: Growth percent rate
[30] = tested on: HOP-62; test: as above; type: cell-based; conditions: Homo sapiens; 10 μM; HOP-62, Non-small Cell Lung Cancer; read-out: Growth percent rate
[31] = tested on: NCI-H522; test: as above; type: cell-based; conditions: Homo sapiens; 10 μM; NCI-H522, Non-small Cell Lung Cancer; read-out: Growth percent rate
[32] = tested on: SK-MEL-2; test: NCI60 one-dose screen (10 μM), Melanoma; type: cell-based; conditions: Homo sapiens; 10 μM; SK-MEL-2, Melanoma; read-out: Growth percent rate
[33] = tested on: SK-MEL-28; test: NCI60 one-dose screen (10 μM), Melanoma; type: cell-based; conditions: Homo sapiens; 10 μM; SK-MEL-28, Melanoma; read-out: Growth percent rate
[34] = tested on: HL-60(TB); test: NCI60 one-dose screen (10 μM), Leukemia; type: cell-based; conditions: Homo sapiens; 10 μM; HL-60(TB), Leukemia; read-out: Growth percent rate
[35] = tested on: A498; test: NCI60 one-dose screen (10 μM), Renal Cancer; type: cell-based; conditions: Homo sapiens; 10 μM; A498, Renal Cancer; read-out: Growth percent rate
[36] = tested on: HCT-15; test: NCI60 one-dose screen (10 μM), Colon Cancer; type: cell-based; conditions: Homo sapiens; 10 μM; HCT-15, Colon Cancer; read-out: Growth percent rate
[37] = tested on: MCF7; test: NCI60 one-dose screen (10 μM), Breast Cancer; type: cell-based; conditions: Homo sapiens; 10 μM; MCF7, Breast Cancer; read-out: Growth percent rate
[38] = tested on: SN12C; test: NCI60 one-dose screen (10 μM), Renal Cancer; type: cell-based; conditions: Homo sapiens, 10 μM, Renal Cancer, read-out: Growth percent rate
[39] = tested on: RPMI-8226; test: NCI60 one-dose screen (10 μM), Leukemia; type: cell-based; conditions: Homo sapiens; 10 μM; RPMI-8226, Leukemia; read-out: Growth percent rate
[40] = tested on: CCRF-CEM; test: NCI60 one-dose screen (10 μM), Leukemia; type: cell-based; conditions: Homo sapiens, 10 μM, Leukemia, read-out: Growth percent rate
[41] = tested on: K-562; test: NCI60 one-dose screen (10 μM), Leukemia; type: cell-based; conditions: Homo sapiens, K562; 10 μM; K-562, Leukemia; read-out: Growth percent rate
[42] = tested on: KM12; test: NCI60 one-dose screen (10 μM), Colon Cancer; type: cell-based, human; conditions: Homo sapiens; 10 μM; KM12, Colon Cancer; read-out: Growth percent rate

SMILES: CCC12C=CCN3CCC4(c5cc(NC(=O)CN6CCN(C(=O)c7ccco7)CC6)c(OC)cc5N(C)C4C(O)(C(=O)OC)C1OC(C)=O)C32 (stereo not drawn) [Compound 21]
- activity at 10 µM [1]: 99.2%
- activity at 10 µM [2]: 121%
- activity at 10 µM [3]: 97.5%
- activity at 10 µM [4]: 110%
- activity at 10 µM [5]: 110%
- activity at 10 µM [6]: 106%
- activity at 10 µM [7]: 108%
- activity at 10 µM [8]: 109%
- activity at 10 µM [9]: 126%
- activity at 10 µM [10]: 109%
- activity at 10 µM [11]: 114%
- activity at 10 µM [12]: 104%
- activity at 10 µM [13]: 120%
- activity at 10 µM [14]: 105%
- activity at 10 µM [15]: 96.2%
- activity at 10 µM [16]: 106%
- activity at 10 µM [17]: 104%
- activity at 10 µM [18]: 113%
- activity at 10 µM [19]: 101%
- activity at 10 µM [20]: 101%
- activity at 10 µM [21]: 110%
- activity at 10 µM [22]: 109%
- activity at 10 µM [23]: 118%
- activity at 10 µM [24]: 127%
- activity at 10 µM [25]: 101%
- activity at 10 µM [26]: 91%
- activity at 10 µM [27]: 118%
- activity at 10 µM [28]: 104%
- activity at 10 µM [29]: 108%
- activity at 10 µM [30]: 100%
- activity at 10 µM [31]: 98.2%
- activity at 10 µM [32]: 111%
- activity at 10 µM [33]: 126%
- activity at 10 µM [34]: 114%
- activity at 10 µM [35]: 104%
- activity at 10 µM [36]: 107%
- activity at 10 µM [37]: 98.3%
- activity at 10 µM [38]: 107%
- activity at 10 µM [39]: 103%
- activity at 10 µM [40]: 103%
- activity at 10 µM [41]: 108%
- activity at 10 µM [42]: 99.8%
